This passage reports inhibition results from US9676760B2, “Fused heterocyclic compounds as ion channel modulators” (Gilead Sciences, Inc., priority 2011, dated 2017).

What all share (assay type): cell-based
Assay [1] addresses T1, wild-type human cardiac sodium channel, hNav1.5 (Homo sapiens, UniProt Q14524). The assay can be described thus: Late INa screening assay (QPatch whole cell patch clamp, HEK293). Summed up:
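HEK293 stably expressing hNav1.5 without beta subunits, recorded at 23-25° C. Late current was induced by 10 μM tefluthrin. Cells were depolarized from −120 mV to −20 mV for 250 ms at 0.1 Hz. Compounds were tested at 1 μM in extracellular solution, with baseline taken in 0Na-ECF; output is percent block of late INa.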

The target of assay [2] is T1, wild-type human cardiac sodium channel, hNav1.5. The assay can be described thus: Peak INa screening assay (tonic and use-dependent block). The note with it: compound at 1 μM. Summed up:
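Whole-cell automated patch clamp (QPatch) at 23–25°C on HEK293 cells stably expressing hNav1.5 alpha subunit only, with CsF/CsCl pipette solution, pH 7.4. Compound at 1 μM in extracellular solution; bath Na+ could be cut to 20 mM with a nonpermeant cation. Tonic block measured at 0.1 Hz, use-dependent block at 3 Hz.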

Assay [3] deals with T2, hNav 1.1 sodium channel isoform (Homo sapiens, UniProt P35498).
T2 construct: expressed in transfected cells; host or cells: HEK293, transient transfection (Qiagen Superfect)
The assay can be described thus: hNav1.1 whole-cell voltage-clamp assay. Particulars: % Inhibition at 1 uM; use-dependent block, 10 Hz; read-out: NAV1.1* UDB-10HZ.

The target of assay [4] is T3, hNav 1.2 sodium channel isoform (Homo sapiens, UniProt Q99250).
T3 construct: expressed in transfected cells
Description: hNav1.2 whole-cell voltage-clamp assay. Particulars: use-dependent block, 10 Hz, read-out: NAV1.2* UDB-10HZ. How it is done: Wild-type (WT) cDNA stably transfected in Chinese hamster ovary (CHO) cells is used to record INa. Unless otherwise noted, all reagents are purchased from Sigma-Aldrich (St Louis, Mo., U.S.A.).
Whole-cell voltage-clamp recordings are used to measure the biophysical properties of WT. […] Cells are allowed to stabilize for 10 min after establishment of the whole-cell configuration before current is measured. Series resistance is compensated 90% to assure that the command potential is reached within microseconds with a voltage error<2 mV. Leak currents are subtracted by using an online P/4 procedure and all currents are low-pass Bessel filtered at 5 kHz and digitized at 50 kHz.
For clarity, representative ramp currents are low pass filtered off-line at 50 Hz. Specific voltage-clamp protocols assessing channel activation, fast inactivation and availability during repetitive stimulation are used. Results are presented as mean±SEM.
Tonic block of peak current is measured using a step to −10 mV (20 ms) from a holding potential of −120 mV (0.2 Hz). Use-dependent block of peak current is measured during pulse number 300 of a pulse train (−10 mV, 5 ms, 300 pulses, 10 Hz or 25 Hz) from a holding potential of −120 mV. Two sequential pulse train stimulations are averaged to obtain mean current traces for each recording condition, which are then used for offline subtraction and analysis.
For use-dependent studies, cells are stimulated with depolarizing pulse trains (−10 mV, 5 ms, 300 pulses, 10 and 25 Hz) from a holding potential of −120 mV. Currents are then normalized to the peak current recorded in response to the first pulse in each frequency train. For tonic block studies, peak current is evaluated in response to a 20 ms depolarization to −10 mV (0.2 Hz). […] Results are presented as mean±SEM.
A stock solution of 10 mM compound of Formula I is prepared in 0.1 M HCl or DMSO. […] The final DMSO concentration was kept at 0.1% in all solutions. Direct application of the perfusion solution to the clamped cell is achieved using the Perfusion Pencil system (Automate, Berkeley, Calif.). Direct cell perfusion is driven by gravity at a flow rate of 350 μL/min using a 250 micron tip. This system sequesters the clamped cell within a perfusion stream and enables complete solution exchange within 1 second. The clamped cell is perfused continuously starting immediately after establishing the whole-cell configuration. Control currents are measured during control solution perfusion.
Solutions are perfused for three minutes prior to current recordings to allow equilibrium (tonic) drug block. Tonic block of peak currents is measured from this steady-state condition. Three sequential current traces are averaged to obtain a mean current for each recording. The mean current traces are utilized for offline analysis. Use-dependent block of peak current is measured during pulse number 300 of the pulse train, (−10 mV, 5 ms, 300 pulses, 10 Hz) from a holding potential of −120 mV.

The mark [5] stands for this setting: HEK293, % Inhibition at 1 uM, read-out: Late INa*.
[6] abbreviates: HEK293, percent block of late INa, compound at 1 μM, 10 μM Tefluthrin, read-out: Late INa 1 μM.
Where [7] appears, read: tonic block of peak INa, 0.1 Hz, read-out: Peak TB 1 μM.
Setting [8] is: use-dependent block of peak INa, 3 Hz, read-out: Peak UDB 1 μM.

T1 sequence (Q14524 whole entry): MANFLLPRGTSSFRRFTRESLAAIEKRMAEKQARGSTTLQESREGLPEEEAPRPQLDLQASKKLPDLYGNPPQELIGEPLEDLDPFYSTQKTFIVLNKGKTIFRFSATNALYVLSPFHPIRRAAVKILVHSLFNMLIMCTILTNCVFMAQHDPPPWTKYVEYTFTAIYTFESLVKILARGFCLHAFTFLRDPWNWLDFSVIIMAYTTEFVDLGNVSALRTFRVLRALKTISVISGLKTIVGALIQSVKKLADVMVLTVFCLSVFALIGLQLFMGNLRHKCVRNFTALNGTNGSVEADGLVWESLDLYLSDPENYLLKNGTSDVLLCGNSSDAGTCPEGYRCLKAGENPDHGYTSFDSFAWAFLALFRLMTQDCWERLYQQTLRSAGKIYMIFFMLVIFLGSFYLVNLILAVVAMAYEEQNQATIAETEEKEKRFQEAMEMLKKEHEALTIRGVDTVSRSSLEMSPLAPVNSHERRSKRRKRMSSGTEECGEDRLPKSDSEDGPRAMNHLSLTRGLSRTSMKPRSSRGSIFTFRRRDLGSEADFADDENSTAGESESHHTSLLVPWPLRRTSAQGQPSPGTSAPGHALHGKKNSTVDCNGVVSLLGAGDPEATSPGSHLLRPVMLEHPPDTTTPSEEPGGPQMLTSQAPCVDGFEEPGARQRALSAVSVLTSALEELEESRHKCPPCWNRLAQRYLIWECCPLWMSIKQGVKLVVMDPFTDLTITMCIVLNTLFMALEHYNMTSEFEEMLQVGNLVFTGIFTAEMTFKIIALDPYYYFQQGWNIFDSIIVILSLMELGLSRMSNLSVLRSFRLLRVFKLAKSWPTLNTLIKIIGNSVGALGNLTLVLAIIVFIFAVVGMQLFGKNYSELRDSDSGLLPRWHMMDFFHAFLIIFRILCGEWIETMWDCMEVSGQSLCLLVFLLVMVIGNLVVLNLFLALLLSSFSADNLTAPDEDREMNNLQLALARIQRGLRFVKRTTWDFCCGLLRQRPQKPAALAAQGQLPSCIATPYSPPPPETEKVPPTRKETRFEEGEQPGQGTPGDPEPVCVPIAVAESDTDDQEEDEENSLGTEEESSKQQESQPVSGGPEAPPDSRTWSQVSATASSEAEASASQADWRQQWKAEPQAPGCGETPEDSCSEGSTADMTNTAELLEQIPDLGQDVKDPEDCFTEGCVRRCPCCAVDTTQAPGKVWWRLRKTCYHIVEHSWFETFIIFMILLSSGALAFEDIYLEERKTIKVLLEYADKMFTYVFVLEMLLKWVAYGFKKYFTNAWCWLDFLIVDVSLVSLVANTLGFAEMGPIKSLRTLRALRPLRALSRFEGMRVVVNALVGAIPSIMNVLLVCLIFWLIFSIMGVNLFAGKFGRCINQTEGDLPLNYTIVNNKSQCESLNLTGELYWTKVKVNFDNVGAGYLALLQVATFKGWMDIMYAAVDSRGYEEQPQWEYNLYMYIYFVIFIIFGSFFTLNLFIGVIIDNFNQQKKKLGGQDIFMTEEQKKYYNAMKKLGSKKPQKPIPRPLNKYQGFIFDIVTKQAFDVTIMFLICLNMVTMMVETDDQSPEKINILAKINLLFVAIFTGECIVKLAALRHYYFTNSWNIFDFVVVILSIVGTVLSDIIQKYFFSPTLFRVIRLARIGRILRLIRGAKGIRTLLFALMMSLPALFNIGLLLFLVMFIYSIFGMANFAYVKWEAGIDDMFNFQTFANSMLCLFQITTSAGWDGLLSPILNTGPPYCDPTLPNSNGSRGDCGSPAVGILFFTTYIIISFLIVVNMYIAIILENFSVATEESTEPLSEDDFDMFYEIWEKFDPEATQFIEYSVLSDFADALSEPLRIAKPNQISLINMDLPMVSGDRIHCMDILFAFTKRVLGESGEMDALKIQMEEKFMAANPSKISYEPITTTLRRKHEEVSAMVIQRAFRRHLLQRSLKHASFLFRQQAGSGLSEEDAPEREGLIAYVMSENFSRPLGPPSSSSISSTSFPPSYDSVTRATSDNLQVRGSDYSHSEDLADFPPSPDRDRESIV
T3 sequence (Q99250 whole entry, canonical isoform): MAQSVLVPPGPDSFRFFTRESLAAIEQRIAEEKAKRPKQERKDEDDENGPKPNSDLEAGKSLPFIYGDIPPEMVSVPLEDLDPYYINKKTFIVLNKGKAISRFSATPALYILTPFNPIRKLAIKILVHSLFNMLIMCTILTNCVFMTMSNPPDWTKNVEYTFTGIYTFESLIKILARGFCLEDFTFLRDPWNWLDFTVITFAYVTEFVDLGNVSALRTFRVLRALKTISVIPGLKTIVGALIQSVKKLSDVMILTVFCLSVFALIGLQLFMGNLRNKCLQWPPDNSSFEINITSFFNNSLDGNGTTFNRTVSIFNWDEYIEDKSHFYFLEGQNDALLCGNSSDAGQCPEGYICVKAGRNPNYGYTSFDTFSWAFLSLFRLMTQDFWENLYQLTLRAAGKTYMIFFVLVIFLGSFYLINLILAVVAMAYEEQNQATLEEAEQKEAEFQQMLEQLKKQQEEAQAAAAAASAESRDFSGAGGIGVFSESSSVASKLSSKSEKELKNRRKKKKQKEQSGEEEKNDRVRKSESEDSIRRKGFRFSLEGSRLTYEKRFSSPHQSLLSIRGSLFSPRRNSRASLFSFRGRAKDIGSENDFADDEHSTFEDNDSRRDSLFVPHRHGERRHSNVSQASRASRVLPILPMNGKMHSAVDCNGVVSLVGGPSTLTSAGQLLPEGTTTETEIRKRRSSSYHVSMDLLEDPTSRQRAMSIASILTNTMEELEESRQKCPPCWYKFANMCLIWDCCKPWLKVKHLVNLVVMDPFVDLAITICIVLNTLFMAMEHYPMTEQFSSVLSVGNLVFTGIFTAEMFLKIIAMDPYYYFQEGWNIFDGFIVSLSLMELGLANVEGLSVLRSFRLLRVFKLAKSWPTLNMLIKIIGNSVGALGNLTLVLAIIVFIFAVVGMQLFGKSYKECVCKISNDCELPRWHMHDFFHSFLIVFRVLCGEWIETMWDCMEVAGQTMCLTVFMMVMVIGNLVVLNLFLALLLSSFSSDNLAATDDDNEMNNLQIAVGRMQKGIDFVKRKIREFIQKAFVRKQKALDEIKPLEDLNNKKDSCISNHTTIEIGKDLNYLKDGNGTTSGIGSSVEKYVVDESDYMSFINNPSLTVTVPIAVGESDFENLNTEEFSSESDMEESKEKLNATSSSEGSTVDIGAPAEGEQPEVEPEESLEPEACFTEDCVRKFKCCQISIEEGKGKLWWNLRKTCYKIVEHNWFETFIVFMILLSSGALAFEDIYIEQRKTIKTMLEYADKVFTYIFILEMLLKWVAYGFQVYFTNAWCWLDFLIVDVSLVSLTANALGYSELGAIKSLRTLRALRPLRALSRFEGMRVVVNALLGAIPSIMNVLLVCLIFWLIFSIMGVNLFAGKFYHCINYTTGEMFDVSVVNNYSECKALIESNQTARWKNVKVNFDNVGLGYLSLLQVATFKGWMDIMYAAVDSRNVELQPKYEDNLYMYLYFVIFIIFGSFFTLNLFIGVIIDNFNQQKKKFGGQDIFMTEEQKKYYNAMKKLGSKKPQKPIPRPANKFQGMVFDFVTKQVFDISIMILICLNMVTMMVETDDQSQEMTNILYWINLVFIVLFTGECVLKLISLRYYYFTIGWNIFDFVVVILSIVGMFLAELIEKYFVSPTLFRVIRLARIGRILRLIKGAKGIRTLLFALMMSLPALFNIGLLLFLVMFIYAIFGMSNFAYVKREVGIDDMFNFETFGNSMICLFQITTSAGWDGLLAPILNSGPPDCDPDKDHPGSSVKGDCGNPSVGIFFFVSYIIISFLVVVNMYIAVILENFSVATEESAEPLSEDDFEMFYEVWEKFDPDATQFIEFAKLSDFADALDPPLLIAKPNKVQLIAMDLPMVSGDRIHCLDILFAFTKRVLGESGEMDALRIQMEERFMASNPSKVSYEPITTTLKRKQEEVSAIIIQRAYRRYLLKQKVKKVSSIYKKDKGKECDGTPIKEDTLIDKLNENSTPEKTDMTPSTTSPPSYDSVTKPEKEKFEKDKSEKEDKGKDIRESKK

In the case of `CC1CC=C(c2ccc3c(c2)C(=O)N(Cc2ncccn2)CCO3)CC1` (centres unmarked) [Compound V-5, 7-(4-methylcyclohex-1-enyl)-4-(pyrimidin-2-ylmethyl)-3,4-dihydrobenzo[f][1,4]oxazepin-5(2H)-one], the inhibition at 1 µM was 49% in assay [1] (setting [5]); 49% in assay [1] (setting [6]); 5% in assay [2] (setting [7]); 5% in assay [2] (setting [8]); -18% in assay [3]; 3% in assay [4].
Regarding `O=C1c2cc(-c3ccc(OC(F)(F)F)cc3)ccc2OCCN1Cc1ccc2ccccc2n1` [II-7, 4-(quinolin-2-ylmethyl)-7-(4-(trifluoromethoxy)phenyl)-3,4-dihydrobenzo[f][1,4]oxazepin-5(2H)-one], the inhibition at 1 µM in assay [1] (setting [5]) is 34%; in assay [1] (setting [6]), 34%; in assay [3] it was 0%; in assay [4], 13%.
Consider `O=C1c2cc(-c3ccc(OC(F)(F)F)cc3)ccc2OCCN1CC1CC1` [II-10, 4-(cyclopropylmethyl)-7-(4-(trifluoromethoxy)phenyl)-3,4-dihydrobenzo[f][1,4]oxazepin-5(2H)-one], for which the inhibition at 1 µM was 43% in assay [1] (setting [5]); 43% in assay [1] (setting [6]); 9% in assay [2] (setting [7]); 2% in assay [2] (setting [8]); -4% in assay [3]; 9% in assay [4].
Turning to `N#Cc1cccc(CN2CCOc3ccc(-c4ccc(OC(F)(F)F)cc4)cc3C2=O)n1` [II-14, 6-((5-oxo-7-(4-(trifluoromethoxy)phenyl)-2,3-dihydrobenzo[f][1,4]oxazepin-4(5H)-yl)methyl)picolinonitrile], the inhibition at 1 µM in assay [1] (setting [5]) was 47%; in assay [1] (setting [6]) it was 47%; in assay [2] (setting [7]), 7%; in assay [2] (setting [8]) it was 6%; in assay [3], 16%; in assay [4] it was 19%.
Regarding `COc1cc(OC)nc(CN2CCOc3ccc(-c4ccc(OC(F)(F)F)cc4)cc3C2=O)n1` [II-42, 4-((4,6-dimethoxypyrimidin-2-yl)methyl)-7-(4-(trifluoromethoxy)phenyl)-3,4-dihydrobenzo[f][1,4]oxazepin-5(2H)-one], the inhibition at 1 µM is 34% in assay [1] (setting [5]), 34% in assay [1] (setting [6]), 2% in assay [3] and 12% in assay [4].
As for `CN1CCOc2ccc(-c3ccc(OC(F)(F)F)cc3)cc2C1=O` [II-46, 4-methyl-7-(4-(trifluoromethoxy)phenyl)-3,4-dihydrobenzo[f][1,4]oxazepin-5(2H)-one], the inhibition at 1 µM turned out to be 25% in assay [1] (setting [5]), 25% in assay [1] (setting [6]), 2% in assay [3] and 16% in assay [4].
Turning to `Cc1cccnc1CN1CCOc2ccc(-c3ccc(OC(F)(F)F)cc3)cc2C1=O` [II-75, 4-((3-methylpyridin-2-yl)methyl)-7-(4-(trifluoromethoxy)phenyl)-3,4-dihydrobenzo[f][1,4]oxazepin-5(2H)-one], the inhibition at 1 µM came to 68% in assay [1] (setting [5]); 68% in assay [1] (setting [6]); 45% in assay [2] (setting [7]); 59% in assay [2] (setting [8]); 35% in assay [3]; 52% in assay [4].
As to `CCc1ccc(-c2ccc3c(c2)C(=O)N(Cc2ncccn2)CCO3)cc1` [II-91, 7-(4-ethylphenyl)-4-(pyrimidin-2-ylmethyl)-3,4-dihydrobenzo[f][1,4]oxazepin-5(2H)-one], the inhibition at 1 µM in assay [1] (setting [5]) was 54%; in assay [1] (setting [6]), 54%; in assay [2] (setting [7]) it was 8%; in assay [2] (setting [8]), 11%; in assay [3], -9%; in assay [4] it was -3%.
For `COc1cccnc1CN1CCOc2ccc(-c3ccc(OC(F)(F)F)cc3)cc2C1=O` [II-143, 4-((3-methoxypyridin-2-yl)methyl)-7-(4-(trifluoromethoxy)phenyl)-3,4-dihydrobenzo[f][1,4]oxazepin-5(2H)-one], the inhibition at 1 µM in assay [1] (setting [5]) came out at 65%; in assay [1] (setting [6]), 65%; in assay [3], 29%; in assay [4], 44%.
With `O=C1c2nc(-c3ccc(OC(F)(F)F)cc3)ccc2OCCN1Cc1ccccc1` [XII-2, 4-benzyl-7-(4-(trifluoromethoxy)phenyl)-3,4-dihydropyrido[2,3-f][1,4]oxazepin-5(2H)-one], the results for the inhibition at 1 µM in assay [1] (setting [6]), in assay [2] (setting [7]) and in assay [2] (setting [8]) were 57%, 45% and 64%, respectively.
The corresponding values for `O=C1c2nc(-c3ccc(C(F)(F)F)cc3)ccc2OCCN1Cc1ccccc1` [XII-3, 4-benzyl-7-(4-(trifluoromethyl)phenyl)-3,4-dihydropyrido[2,3-f][1,4]oxazepin-5(2H)-one] are 44%, 51% and 79%.
`Cc1ccnc(CN2CCOc3cnc(-c4ccc(OC(F)(F)F)cc4)cc3C2=O)n1` [XII-8, 4-((4-methylpyrimidin-2-yl)methyl)-7-(4-(trifluoromethoxy)phenyl)-3,4-dihydropyrido[4,3-f][1,4]oxazepin-5(2H)-one]: the inhibition at 1 µM in assay [1] (setting [5]) came out at 36%; in assay [1] (setting [6]) it was 36%; in assay [3] it was 11%; in assay [4], 11%.
Consider `COc1cccnc1CN1CCOc2cnc(-c3ccc(OC(F)(F)F)cc3)cc2C1=O` [XII-10, 4-((3-methoxypyridin-2-yl)methyl)-7-(4-(trifluoromethoxy)phenyl)-3,4-dihydropyrido[4,3-f][1,4]oxazepin-5(2H)-one], for which the inhibition at 1 µM in assay [1] (setting [6]) was determined as 45%; in assay [2] (setting [7]) it was 13%; in assay [2] (setting [8]), 20%.
Turning to `O=C1c2cc(-c3ccc(OC(F)(F)F)cc3)ncc2OCCN1Cc1ncccc1F` [XII-11, 4-((3-fluoropyridin-2-yl)methyl)-7-(4-(trifluoromethoxy)phenyl)-3,4-dihydropyrido[4,3-f][1,4]oxazepin-5(2H)-one], the inhibition at 1 µM in assay [1] (setting [6]) was 55%; in assay [2] (setting [7]), 25%; in assay [2] (setting [8]), 24%.
For `O=C1c2cc(Nc3ccc(OC(F)(F)F)cc3)ccc2OCCN1Cc1ccccn1` [XIII-4, 4-(pyridin-2-ylmethyl)-7-(4-(trifluoromethoxy)phenylamino)-3,4-dihydrobenzo[f][1,4]oxazepin-5(2H)-one] the same measures were 51%, 8% and 9%.
With `O=C1c2cc(Nc3ccc(C(F)(F)F)cc3)ccc2OCCN1Cc1ccccn1` [XIII-6, 4-(pyridin-2-ylmethyl)-7-(4-(trifluoromethyl)phenylamino)-3,4-dihydrobenzo[f][1,4]oxazepin-5(2H)-one], the inhibition at 1 µM in assay [1] (setting [6]) worked out at 60%; in assay [2] (setting [7]) it was 8%; in assay [2] (setting [8]), 8%.
